Source: paper PMC8745124, “The Potential Antimicrobial Action of Human Mucin 7 15-Mer Peptide and Its Metal Complexes” (International Journal of Molecular Sciences, 2021)
Converted amounts (≈) assume the structure as drawn. Where two headings read alike, the source gives them in different places. No end group written: not given here.

What was measured:
[1] = system: P. aeruginosa; conditions: Table S7, cited from earlier work
Experimental: (§1) page 13: Table S5. Experimentally measured molar extinction coefficients (ε) and absorbance maxima (λmax) for L1, L2 and L3 which concentration was determined by UV-Vis. Solvent HEPES buffer (50 mM. I = 0.16 M).Path length = 1 cm.T = 25°C. λmax [nm] ε [M-1cm-1] L1 275.5 1076 L2 280 1062 L3 275.5 1077 Table S6. Antimicrobial activity of the […] (L1), […] (L2) and […] (L3) and their metal(II) complexes against pathogenic microorganisms. Values are the average of three independent experiments performed in three wells. Ligands/ E. faecalis S. epidermidis E. coli ...

[2] = system: E. coli; conditions: Table S7, cited from earlier work
Experimental: as §1

[3] = system: E. faecalis; conditions: Table S7, cited from earlier work
Source text: (§2) Values are the average of three independent experiments performed in three wells.

[4] = system: C. albicans; parameters: method as in 2 sources, one per row (each row's own in cited_ref): ref [33] (a number printed in a supplementary file, which may have a reference list of its own: not looked up in the article's list) ||| ref [36] (a number printed in a supplementary file, which may have a reference list of its own: not looked up in the article's list); conditions: Table S7; ref [36]; cited from earlier work
Source text: as §2

[5] = system: S. epidermidis KCTC 1917; format: cell-based, Staphylococcus epidermidis; conditions: KCTC 1917, 24 h
Experimental: (§3) The antimicrobial properties of three peptides (L1, L2, L3) and metal(II) complexes (molar ratio, 1:1) were tested on human pathogenic strains. E. coli ATCC 25922, E. faecalis ATCC 29212, P. aeruginosa ATCC 15422, and S. epidermidis KCTC 1917 were grown at 37 °C in Luria Bertani Broth (LB; 10 g/L bacto-tryptone, 5 g/L bacto-yeast extract, 10 g/L NaCl). The C. albicans […] was grown in a 6.7 g/L yeast nitrogen base (YNB) broth (Difco Laboratories) containing 2% D-glucose at 37 °C. The minimum inhibitory concentration (MIC) values of the peptides and their metal(II) complexes were determined using the microdilution broth method in 96-well microplates (Sarstedt, Nümbrecht, Germany). The serial dilutions of tested compounds (0–500 µM) were dissolved in LB medium for bacteria and YNB medium for C. albicans. The inoculum (2.5 µL) of each strain (10^8 CFU mL^−1) was placed into each well containing 200 µL of serial dilutions of the tested peptides and their metal(II) complexes. […] Bacteria and C. albicans incubated with metal ions were used as additional controls. After 24 h of incubation at 37 °C, the optical density at 600 nm of each well was measured using a multifunctional microplate reader (Synergy™ H1, BioTek, Winooski, VT, USA).

[6] = system: C. albicans ATCC 10231; format: cell-based, Candida albicans; conditions: ATCC 10231, 24 h
Experimental: as §3

[7] = format: physicochemical
Source text: Distribution profiles for Cu(II) and Zn(II) complexes calculated based on titrations are depicted in Figure 1. Complexes of L1 with Zn(II) were precipitated in the experimental concentration used for potentiometry above pH 9, while for L2 and L3 complexes were insoluble above pH 7. For copper complexes, precipitation was not observed at any experimental pH value.
Based on the experimental curves, it was possible to determine stability constants only for some complex species (ZnH3L and ZnHL for L2 and ZnH4L, ZnH3L and ZnHL for L3 ligand). […] Based on the competition diagram, Figure 3A, it could be assumed that all His residues are involved in the coordination of the Zn(II) ion directly or indirectly through the steric effect. The L3 ligand has the best affinity to metal ions already in an acidic environment and throughout the range of the tested pH. […] It could be concluded that although L1 and L2 have the same number of histidyl residues, their mutual position affects the effectiveness of metal ion binding at a given pH value. Above pH 6.5, L1 binds the Zn(II) with higher stability than that observed for L2.
Zinc complexes were not soluble above pH 9 and 7 for L1 and L2, L3, respectively. It was surprising that upon contact with the […] n-octanol phase, Zn(II)/L1 complexes formed in the water were precipitated, which prevented further measurement of the partition coefficient logPo/w. This undoubtedly proves the hydrophilic nature of Zn (II)/L1 complexes. In the case of zinc complexes of the remaining ligands, no precipitate was observed, so experimental values of logPo/w were determined. In comparison to free ligands, the lipophilicity of Cu(II) complexes is lower for all studies’ systems. For L2 and L3, and their Zn(II) complex forms, we observed a slight difference in the partition coefficient concerning the ligands themselves, a slight decrease in lipophilicity in the case of Zn(II)/L2 complexes, and an increase in the case of Zn(II)/L3. […]

[8] = system: P. aeruginosa ATCC 15422; format: cell-based, Pseudomonas aeruginosa; conditions: ATCC 15422, 24 h
Experimental: as §3

[9] = system: E. faecalis ATCC 29212; format: cell-based, Enterococcus faecalis; conditions: ATCC 29212, 24 h
Experimental: as §3

[10] = system: E. coli ATCC 25922; format: cell-based, Escherichia coli; conditions: ATCC 25922, 24 h
Experimental: as §3

[11] = molecular target: His3 (position 3, ---KSHFELPA); experiment: potentiometry; conditions: 25 ± 0.2 °C (298 K); I = 0.1 M (KCl); none (HCl/KOH titration under Ar); free peptide, no metal; ligand 1.0 × 10^-3 M (the Table 2 caption says 0.0005 M)
[12] = molecular target: Tyr9 (position 9, …); experiment: potentiometry; conditions: 25 ± 0.2 °C (298 K), I = 0.1 M (KCl), none (HCl/KOH titration under Ar)
[13] = molecular target: Nterm1 (position 1, -----KSHFEL); experiment: potentiometry; conditions: 25 ± 0.2 °C (298 K); I = 0.1 M (KCl); none (HCl/KOH titration under Ar); free peptide, no metal; ligand 1.0 × 10^-3 M (the Table 2 caption says 0.0005 M)
[14] = molecular target: Lys1 (position 1, -----KSHFEL); experiment: potentiometry; conditions: 25 ± 0.2 °C (298 K), I = 0.1 M (KCl), none (HCl/KOH titration under Ar)
[15] = molecular target: His14 (position 14, YGLLAHQ----); experiment: potentiometry; conditions: 25 ± 0.2 °C (298 K), I = 0.1 M (KCl), none (HCl/KOH titration under Ar)
[16] = molecular target: Tyr9 (position 9, …); experiment: potentiometry; conditions: 25 ± 0.2 °C (298 K), I = 0.1 M (KCl), none (HCl/KOH titration under Ar); remark: listed apart in the source
[17] = molecular target: His8 (position 8, …); experiment: potentiometry; conditions: 25 ± 0.2 °C (298 K); I = 0.1 M (KCl); none (HCl/KOH titration under Ar); free peptide, no metal; ligand 1.0 × 10^-3 M (the Table 2 caption says 0.0005 M)
[18] = molecular target: His3 (position 3, ---KSHFELPH); experiment: potentiometry; conditions: 25 ± 0.2 °C (298 K); I = 0.1 M (KCl); none (HCl/KOH titration under Ar); free peptide, no metal; ligand 1.0 × 10^-3 M (the Table 2 caption says 0.0005 M)
[19] = molecular target: Nterm1 (position 1, -----KSAFEL); experiment: potentiometry; conditions: 25 ± 0.2 °C (298 K); I = 0.1 M (KCl); none (HCl/KOH titration under Ar); free peptide, no metal; ligand 1.0 × 10^-3 M (the Table 2 caption says 0.0005 M)
[20] = molecular target: His8 (position 8, …); experiment: potentiometry; conditions: 25 ± 0.2 °C (298 K); I = 0.1 M (KCl); none (HCl/KOH titration under Ar); free peptide, no metal; ligand 1.0 × 10^-3 M (the Table 2 caption says 0.0005 M); remark: listed apart in the source
[21] = molecular target: Lys1 (position 1, -----KSAFEL); experiment: potentiometry; conditions: 25 ± 0.2 °C (298 K), I = 0.1 M (KCl), none (HCl/KOH titration under Ar)
[22] = Cu(II)-bound mononuclear complex (4N coordination), metal:ligand 1:1.1 and 1:2
[23] = free peptide, no metal, ligand 1.0 × 10^-3 M (the Table 2 caption says 0.0005 M)

In the case of O=C(O)c1cn(C2CC2)c2cc(N3CCNCC3)c(F)cc2c1=O [Ciprofloxacin], the MIC ([1]; ref [33]) is listed as 0.16 µg/mL (≈ 0.483 µM) and the MIC ([2]; ref [33]) is listed as 0.08 µg/mL (≈ 0.241 µM).

For CNC(C)C1CCC(N)C(OC2C(N)CC(N)C(OC3OCC(C)(O)C(NC)C3O)C2O)O1 (stereo not shown) [Gentamicin], the MIC ([3]; ref [33]) is given as ≥ 2.50 µg/mL, the MIC ([1]; ref [33]) is given as 0.31 µg/mL (≈ 0.649 µM) and the MIC ([2]; ref [33]) is given as ≥ 2.50 µg/mL.

In the case of Clavanin B, the MIC [4] is listed as 64 µg/mL, the MIC ([3]; ref [36]) is listed as 256 µg/mL and the MIC ([2]; ref [36]) is listed as 256 µg/mL.

For Clavanin D, the MIC [4] is listed as 16 µg/mL, the MIC ([3]; ref [36]) is listed as 128 µg/mL and the MIC ([2]; ref [36]) is listed as 64 µg/mL.

For Gramicidin S, the MIC ([3]; ref [35]) is listed as 6.25 µg/mL, the MIC ([1]; ref [35]) is listed as 50 µg/mL and the MIC ([2]; ref [35]) is listed as 50 µg/mL.

With KSAFELPHYGLLAHQ [L1] the MIC [5] was 132 ± 1.6 µM, the MIC [6] was 436 ± 2.4 µM and the solubility in water [7] was “soluble in water”. For the same molecule, the MIC [8] was 285 ± 2.6 µM, the MIC [9] was 145 ± 3.1 µM and the MIC [10] was 412 ± 2.4 µM.

For KSHFELPAYGLLAHQ [L2], the MIC [5] was 147 ± 1.6 µM, the MIC [6] was 469 ± 1.4 µM and the solubility in water [7] was “soluble in water”. The MIC [8] was 302 ± 2.8 µM, the MIC [9] was 163 ± 2.2 µM and the MIC [10] was 416 ± 0.5 µM.

For KSHFELPHYGLLAHQ [L3], the MIC [5] was 210 ± 2.6 µM, the MIC [6] was > 888 µg/mL and the solubility in water [7] was “soluble in water”. For the same molecule, the MIC [8] was 313 ± 2.5 µM, the MIC [9] was 241 ± 1.6 µM and the MIC [10] was > 888 µg/mL.

For Polymyxin, the MIC ([3]; ref [34]) is given as > 16 µg/mL, the MIC ([1]; ref [34]) is given as 1 µg/mL and the MIC ([2]; ref [34]) is given as 1 µg/mL.

KSHFELPAYGLLAHQ [MUC7 15-mer peptide analogue L2 (KSHFELPAYGLLAHQ) (Homo sapiens (synthetic peptide); H8A)] gave a pKa [11] of 5.62, a pKa [12, 22] of 9.43 and a pKa [12, 23] of 9.58. For the same molecule, the pKa [13] was 7.42, the pKa [14, 22] was 10.06 and the pKa [14, 23] was 10.50. The pKa [15, 22] was 6.46 and the pKa [15, 23] was 6.72.

KSHFELPHYGLLAHQ [MUC7 15-mer peptide L3 (KSHFELPHYGLLAHQ, mother peptide) (Homo sapiens (synthetic peptide))] showed a pKa [13] of 7.36, a pKa [16, 22] of 9.62 and a pKa [16, 23] of 9.35. The pKa [17] was 6.34, the pKa [14, 22] was 9.85 and the pKa [14, 23] was 10.01. The pKa [18] was 5.40 and the pKa [15, 23] was 6.75.

Molecule KSAFELPHYGLLAHQ [MUC7 15-mer peptide analogue L1 (KSAFELPHYGLLAHQ) (Homo sapiens (synthetic peptide); H3A)] has a pKa [19] of 7.59, a pKa [16, 22] of 9.61 and a pKa [16, 23] of 9.44. The pKa [15, 23] was 6.62, the pKa [20] was 5.98 and the pKa [21, 22] was 10.86. It also gave a pKa [21, 23] of 9.92.
